Source: patent US12054744B2, “NK cells exhibiting an adaptive phenotype and methods for preparing and for using” (Regents of the University of Minnesota, priority 2015, dated 2024)

How the values were obtained:
Type in all cases: cell-based, human
CD155 on monocytes = test: ROS induction in monocytes by H2O2, staining for ROS, CD112 and CD155; settings: H2O2 250 μM
Procedure: (§1) MDSCs were induced from healthy blood donor PBMC with IL-6 (10 ng/mL) and GM-CSF (10 ng/mL) for 7 days, bead-depleted for HLA-DR, and enriched for CD33. FIG. 13A. MDSCs and freshly isolated monocytes were stained for the antigens shown. One representative example from independent experiments is shown. FIG. 13B. Induced MDSCs were stained for CD155 and analyzed by flow cytometry following overnight treatment with superoxide dismutase (SOD, 200 IU/mL), arginase inhibitor (a-ARG, arginase inhibitor N(ω)-hydroxy-nor-L-arginine, 500 μM), ROS scavenger (Catalase, 200 international units per milliliter (IU/mL)), blocking antibodies against TGF-β (10 μg/mL), iNOS inhibitor (aiNOS, NG-monomethyl-1-arginine, 500 micromolar (μM)), or left untreated. Pooled (n=4) data is shown as mean±SEM, and statistical analysis were done using the Student's t-test. FIG. 13C. Unstimulated monocytes and MDSCs were stained for total ROS and analyzed by flow cytometry. FIG. 13D. Unstimulated or H2O2 (250 μM) monocytes and unstimulated MDSCs were stained for total ROS, CD112, and CD155 and analyzed by flow cytometry. Cells double positive for ROS and CD112 or CD155 are shown. One representative donor of six is shown. One representative isotype control is shown for all groups for simplicity as individual controls were similar between conditions. […]

[1] = tested on: PLZF expression in cord blood-derived CD56^dim NK cells; test: Intracellular PLZF staining of cord blood-derived CD56^dim NK cells after 14 days in culture; settings: high-dose IL-15, IL-21 where added
Procedure: FIG. 6A. FACS plots of intracellular PLZF expression in cord blood-derived CD56^dim NK cells from a representative donor after 14 days in the indicated culture conditions. FIG. 6B. Cumulative data showing the percentage of PLZF″ NK cells after 14 days in each culture condition from 6 donors. Two independent experiments were performed. Error bars represent SEM.
Mononuclear cells were isolated from whole cord blood by density gradient centrifugation. T cells and B cells were depleted by positive magnetic selection using anti-CD3 and anti-CD19 microbeads, respectively. CD3/CD19-depleted cells were then added to irradiated OP9 cells at a concentration of 5×10^5 cells/well and cultured for 14 days in RPMI media+10% FBS supplemented with either 1 ng/mL IL-15 or 10 ng/mL IL-15 with or without 50 ng/mL IL-21.
Cord blood-derived NK cells were analyzed before culture and after 7 and 14 days of culture by fluorescence activated cell sorting (FACS) using the following extracellular and intracellular antibodies: BV785-conjugated anti-CD3 (BioLegend, San Diego, CA), PE-Cy7-conjugated anti-CD56 (BioLegend, San Diego, CA), BV605-conjugated anti-CD57 (BioLegend, San Diego, CA), APC-conjugated SYK (eBioscience, San Diego, CA), and PE-conjugated anti-PLZF (BD Biosciences, San Jose, CA).
Transcriptional silencing of the transcription factor promyelocytic leukemia zinc finger (PLZF) is a hallmark of adaptive NK cells that expand in response to CMV infection (Schlums et al. Immunity. 2015; 42(3):443-456). Intracellular staining for PLZF was performed in NK cells from freshly isolated mononuclear cells and from cells that were cultured for 14 days in vitro. Freshly isolated CD56^dimSYK^− NK cells from cord blood were predominantly PLZF-positive (99.3%±0.10). […] Therefore, IL-21 drives down PLZF expression in CD56^dimSYK^− NK cells, causing these cells to acquire adaptive characteristics (FIG. 6).

CD155 on MDSCs = test: CD155 staining of induced MDSCs after overnight treatment with inhibitors of MDSC pathways; settings: catalase 200 IU/mL overnight
Procedure: as §1, with “FIG. 13C.” left out, “FIG. 13D.” left out, “cytometry.” for “cytometry. Cells double positive for ROS and CD112 or CD155 are shown. One representative donor of six is shown. One representative isotype control is shown for all groups for simplicity as individual controls were similar between conditions.”
Purified NK cells or MDS PBMC (FIG. 17) cultured with monocytes or MDSCs for different time points and with different stimuli were resuspended in staining buffer (PBS containing 0.5% human AB serum) and stained with fluorochrome-conjugated antibodies (Table IV). […] All cells were acquired by LSRII and analyzed by FlowJo. […]

pZAP70/Syk and pERK1/2 = test: Phosflow of pZAP70/Syk and pERK1/2 in NK cells co-cultured with MDSCs; settings: NK cells co-cultured with MDSCs 5 days; anti-TIGIT 10 ug/mL or catalase 200 IU/mL; anti-CD16 stimulation
Procedure: (§2) Purified NK cells from healthy blood donors were co-cultured with autologous MDSCs or freshly isolated monocytes at a 2:1 ratio in the presence of IL-15 (10 ng/mL) and in the presence or absence of blocking antibodies against TIGIT (10 μg/mL), or catalase (200 IU/mL) for 5 days. Cells were then washed, rested for 4 hours, stimulated for 10 and 30 min with anti-CD16, and stained for pZAP/Syk or pERK1/2 respectively. Representative (FIG. 14A) or cumulative (FIG. 14B) data are shown from 3 independent experiments as mean±SEM. Statistical analysis was done using the Student's t-test. FIG. 14C. NK cells from monocyte and MDSC co-cultures in the presence or absence of anti-TIGIT or catalase were washed and incubated with 51 Cr-labeled K562 for 4 hours to assess NK cell cytotoxicity. Representative data from 3 independent experiments is shown as mean±SEM.
Given the strong suppressive effect of TIGIT engagement on conventional NK cell function and proliferation, the CD16 induced signaling interaction with TIGIT in NK cells co-cultured with MDSC was analyzed. […] To investigate whether blocking TIGIT or ROS could recover the function of NK cells cultured with MDSCs in cytotoxicity assays, NK cells were cultured with either monocytes or MDSCs were pre-treated with TIGIT blockade or catalase, washed, and then incubated with 51 Cr-labeled K562 cells. […]

K562 = test: Chromium (51Cr) release assay against K562; settings: anti-TIGIT 10 ug/mL or catalase 200 IU/mL
Procedure: as §2, with “NK cells from monocyte and MDSC co-cultures in the presence or absence of anti-TIGIT or catalase were washed and incubated with 51 Cr-labeled K562 for 4 hours to assess NK cell cytotoxicity. Representative data from 3 independent experiments is shown as mean±SEM.” left out
Given the strong suppressive effect of TIGIT engagement on conventional NK cell function and proliferation, the CD16 induced signaling interaction with TIGIT in NK cells co-cultured with MDSC was analyzed. […]
Following 5 days of co-culture with monocytes or MDSCs in the presence or absence of blocking antibodies against TIGIT (10 ug/mL) or ROS scavenger catalase (200 IU/mL), NK cell cytotoxicity was analyzed by chromium (51 Cr) release assays (4 hours) against K562 (ATCC, Manassas, VA) cells at a 5:1-2.5:1 effector:target ratios. 51 Cr release was measured by a γ scintillation counter (Perkin Elmer, Waltham, MA), and specific target lysis was determined.

## OO [H2O2]
CD155 on monocytes
  expression of CD155 in ROS^+ monocytes: induce the expression of CD155

## IL-21: cytokine added at 50 ng/mL to IL-15 cultures
[1]; CD56^dimCD57^+SYK^+ NK cells
  decrease in PLZF expression (percentage of PLZF-negative NK cells): 12.13%±2.43
[1]; CD56^dimCD57^+SYK^− NK cells
  decrease in PLZF expression (percentage of PLZF-negative NK cells): 66.0%±8.86
[1]; CD56^dimCD57^−SYK^+ NK cells
  decrease in PLZF expression (percentage of PLZF-negative NK cells): 14.92%±1.80
[1]; CD56^dimCD57^−SYK^− NK cells
  decrease in PLZF expression (percentage of PLZF-negative NK cells): 35.82%±7.02

B1: catalase: ROS scavenger catalase (Sigma-Aldrich), 200 IU/mL (protein, UniProt P00432 2-527, looked up)
Catalase: ADNRDPASDQMKHWKEQRAAQKPDVLTTGGGNPVGDKLNSLTVGPRGPLLVQDVVFTDEMAHFDRERIPERVVHAKGAGAFGYFEVTHDITRYSKAKVFEHIGKRTPIAVRFSTVAGESGSADTVRDPRGFAVKFYTEDGNWDLVGNNTPIFFIRDALLFPSFIHSQKRNPQTHLKDPDMVWDFWSLRPESLHQVSFLFSDRGIPDGHRHMNGYGSHTFKLVNANGEAVYCKFHYKTDQGIKNLSVEDAARLAHEDPDYGLRDLFNAIATGNYPSWTLYIQVMTFSEAEIFPFNPFDLTKVWPHGDYPLIPVGKLVLNRNPVNYFAEVEQLAFDPSNMPPGIEPSPDKMLQGRLFAYPDTHRHRLGPNYLQIPVNCPYRARVANYQRDGPMCMMDNQGGAPNYYPNSFSAPEHQPSALEHRTHFSGDVQRFNSANDDNVTQVRTFYLKVLNEEQRKRLCENIAGHLKDAQLFIQKKAVKNFSDVHPEYGSRIQALLDKYNEEKPKNAVHTYVQHGSHLSAREKANL
CD155 on MDSCs
  decrease in the expression of CD155 on MDSCs: 55%±23
pZAP70/Syk and pERK1/2
  phosphorylation of ZAP70/Syk and ERK1/2: increased the phosphorylation
K562
  NK cell cytotoxicity against K562, NK cells cultured alone: Neither anti-TIGIT nor catalase had any effect
K562; 5 days, 4 hours 51Cr release
  NK cell cytotoxicity against K562 after co-culture with MDSCs: completely reversed the suppressive effect
